System: Bactrocera oleae
Assay: Attractiveness in glass Y-tube olfactometer (behavioural response of the olive fruit fly)
Format: in vivo
Conditions: 10 ng on filter paper vs dichloromethane control; individual female flies 8 to 30 days old; Y-tube choice
Experimental: The attractiveness of the active substances of the attractant composition according to the invention was evaluated using a glass Y-tube olfactometer (internal diameter 4.5 cm; length of the arm 22 cm; length of the main stem 24.5 cm). The assembly was placed in a lit room at 22° C. Screws held the Y-tube in an inclined position (angle of […] between the Y-tube and the horizontal plane). The Y-tube was placed in the centre of an artificially lit box (60×60×60 cm), covered with sheets on the outside in order to avoid external stimuli. The tubes at the end of the Y were connected to two glass adaptors, to which 30 ml glass flasks were attached, each containing a 1 cm^2 piece of filter paper. […]
Individual female flies—from 8 to 30 days old—were released one by one into the first cm of the base tube of the olfactometer using a manual aspirator. […] The air suction tube was connected to the glass Y-tube and the time until the flies reached the end of one of the arms of the Y was recorded. […]
In order to evaluate the attractiveness of one molecule vis-à-vis Bactrocera oleae, the data collected were analyzed with a khi2 statistical test on Excel and R. The p value, obtained in this test, indicates the probability of obtaining the same value if the null hypothesis was true. […]

C=C1CC/C=C(\C)CC[C@@H]2[C@@H]1CC2(C)C [Beta-caryophyllene, beta-caryophyllene]
Behavioural response obtained using the substance tested (expressed in %): 70.00%

CCCCCCCCCC=O [Decanal, decanal]
Behavioural response obtained using the substance tested (expressed in %): 68.00%
